Read-outs that look alike come from different tables or passages of the source.

In assay [1] the target is recombinant GSK3β kinase (Homo sapiens (Human), UniProt P49841). The experiment in a line: GSK3β kinase assay (Ser/Thr 09 peptide Z-lyte FRET).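 Further: kinase activity read as coumarin to fluorescein emission ratio, 11-point threefold dilutions from 10 µM to 0.0003 µM in duplicate, unphosphorylated and phosphorylated peptide as 0% and 100% controls.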 It is filed as biochemical. The note with it: 46 μM ATP, 1 h room temperature.
recombinant GSK3β kinase, sequence (P49841 whole entry): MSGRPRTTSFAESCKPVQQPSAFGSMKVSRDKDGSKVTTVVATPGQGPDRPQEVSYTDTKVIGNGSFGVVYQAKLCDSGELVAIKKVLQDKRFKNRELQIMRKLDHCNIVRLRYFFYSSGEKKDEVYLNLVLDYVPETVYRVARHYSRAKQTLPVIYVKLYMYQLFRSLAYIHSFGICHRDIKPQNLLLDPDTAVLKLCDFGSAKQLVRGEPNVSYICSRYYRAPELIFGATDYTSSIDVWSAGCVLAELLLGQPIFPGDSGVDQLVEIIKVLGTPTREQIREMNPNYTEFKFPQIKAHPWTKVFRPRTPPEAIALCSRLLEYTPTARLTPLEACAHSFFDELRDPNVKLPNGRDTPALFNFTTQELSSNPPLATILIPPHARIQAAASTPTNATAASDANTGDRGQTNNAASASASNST
The subject of assay [2] is Wnt pathway (Sp5-Luc reporter, TCF/LEF binding sites) in SW480 colon carcinoma cells. The experiment in a line: Screening assay for Wnt activity: Sp5-Luc reporter gene assay.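 Further: firefly luciferase luminescence read in stably transduced SW480 cells carrying the Sp5 promoter reporter with eight TCF/LEF sites, compounds given in 0.1% DMSO final.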 The note with it: Sp5-Luc reporter, SW480 cells, 36 to 48 hours. It counts as cell-based, human.
Protocol: The screening assay for Wnt activity is described as follows.
Following incubation, 15 μl of BriteLite Plus luminescence reagent (Perkin Elmer) was added to each well of the 384-well assay plates. The plates were placed on an orbital shaker for 2 min and then luminescence was quantified using the Envision (Perkin Elmer) plate reader.
The subject of assay [3] is IL-6. The experiment in a line: IL-6 inhibition in LPS-stimulated human peripheral blood mononuclear cells (HTRF).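 On all read-outs here: IL-6 detected by HTRF with an XL665- and Cryptate-labelled anti-IL-6 antibody pair, samples run in duplicate, EC50 obtained from a four-parameter Levenberg-Marquardt curve fit.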 It is filed as cell-based. The following applies: for EC50: Table 9, huPBMCs, LPS 50 ng/mL, 22 hours, dose-response starting from 10 μM; for inhibition at 10 µM: read-out: percent value in parentheses beside EC50 >10 μM.
Protocol: After 22 hour incubation, a mixture of anti-IL6 XL665 and anti-IL-6 Cryptate diluted in reconstitution buffer (Catalog #62IL6PEC, Cisbio Inc., Bedford, Mass.) was added to each well. […] All samples were processed in duplicate. […] EC50 was determined using software generated by Dotmatics Limited (Windhill Bishops Stortford Herts, UK) using the Levenberg-Marquardt 4 parameter fitting procedure with finite different gradients.
For assay [4], the system named is Tau phosphorylation at Ser396 (pSer396). The experiment in a line: Tau phosphorylation assay (pSer396 ELISA / western blot) in SH-SY5Y cells.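 Further: EC50 for reduction of Tau pSer396 in lysed cells, measured by colorimetric ELISA or chemiluminescent western blot, both using the same pSer396 antibody.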 It is filed as cell-based, human. The note with it: SH-SY5Y cells, overnight (16-18 h) exposure, read-out: pSer396 Tau EC50.
Assay [5] deals with SW480 colon carcinoma cells. The experiment in a line: Cell viability assay (CellTiter-Glo). The note with it: for EC50: SW480 cells, CellTiter-Glo, four days incubation; for inhibition at 10 µM: SW480, read-out: percent inhibition at 10 μM. It counts as cell-based, human. For orientation: In ATP-based viability assays light output follows the ATP content of the culture.
Assay [6] deals with recombinant DYRK1A kinase (Homo sapiens (Human), UniProt Q13627). The assay is described as follows: DYRK1A kinase assay (Ser/Thr 18 peptide Z-lyte FRET).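 Further: Read-out is the coumarin to fluorescein emission ratio, referenced to unphosphorylated (0%) and phosphorylated (100%) Ser/Thr 18 peptide controls, values from dose-response curves by non-linear regression.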 It is filed as biochemical. The following applies: 30 μM ATP, 1 h room temperature.
In assay [7] the test system is α-smooth muscle actin (αSMA) positive LL29 cells. The assay is described as follows: Inhibition of fibrotic process: αSMA in TGF-β1 treated primary human fibroblasts from IPF patients.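 On all read-outs here: controls were TGF-β1 stimulated wells with DMSO vehicle (positive) and cells given DMSO alone (negative), cultured in F12 medium with 1% fetal bovine serum.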 It counts as cell-based. The note with it: for EC50: Table 8, LL29 fibroblasts from IPF patients, TGF-β1 20 ng/mL, 4 days; for inhibition at 10 µM: read-out: percent value in parentheses beside EC50 >10 μM.

Setting [8] is: Homo sapiens, Fibroblast, 96 h, dose-response 10 μM to 0.94 nM.

As for `CC(C)CN1CCC[C@@H](C(=O)Nc2cc3cc(-c4cnn(C)c4)ccc3cn2)C1` [Compound 113, (R)-1-Isobutyl-N-(6-(1-methyl-1H-pyrazol-4-yl)isoquinolin-3-yl)piperidine-3-carboxamide], the concentration for a half-maximal effect (EC50) (in general, the midpoint of the concentration-response curve) in assay [1] was 586 nM; in assay [2] (Homo sapiens), above 10000 nM; in assay [3] (Homo sapiens, PBMC) it was 1920 nM; in assay [4] (Homo sapiens), 3800 nM; in assay [5] (Homo sapiens, 96 h), above 10000 nM; in assay [6] it was 24.1 nM. The same molecule returned an EC50 in assay [7] (setting [8]) of 2110 nM.
Turning to `CN1CCC(N2CCC(C(=O)Nc3cc4cc(-c5cncs5)ccc4cn3)CC2)CC1` [Compound 743, 1′-Methyl-N-(6-(thiazol-5-yl)isoquinolin-3-yl)-[1,4′-bipiperidine]-4-carboxamide], the 50% effective concentration (EC50) in assay [1] turned out to be 63 nM; in assay [2] (Homo sapiens), 9490 nM; in assay [3] (Homo sapiens, PBMC), 1130 nM; in assay [4] (Homo sapiens), 432 nM; in assay [5] (Homo sapiens, 96 h), 1540 nM; in assay [6], 1.3 nM. The molecule further gave a 50% effective concentration (EC50) in assay [7] (setting [8]) of 447 nM.
Take `Cn1cc(-c2ccc3cnc(NC(=O)[C@H]4CC[C@H](N5CCOCC5)CC4)cc3c2)cn1` [Compound 6, trans-N-(6-(1-Methyl-1H-pyrazol-4-yl)isoquinolin-3-yl)-4-morpholinocyclohexane-1-carboxamide]: the EC50 came out at 65 nM in assay [1]; 1110 nM in assay [2] (Homo sapiens); 1290 nM in assay [3] (Homo sapiens, PBMC); 475 nM in assay [4] (Homo sapiens); 1260 nM in assay [5] (Homo sapiens, 96 h); 1.3 nM in assay [6]. Further, the concentration for a half-maximal effect (EC50) in assay [7] (setting [8]) was above 10000 nM. The inhibition at 10 µM in assay [7] (Homo sapiens, Fibroblast) was found to be 45.6%.
For `Cn1cc(-c2ccc3cnc(NC(=O)C4CCN(CC5(C(F)(F)F)CC5)CC4)cc3c2)cn1` [Compound 310, N-(6-(1-Methyl-1H-pyrazol-4-yl)isoquinolin-3-yl)-1-((1-(trifluoromethyl)cyclopropyl)methyl)piperidine-4-carboxamide], the EC50 in assay [1] stood at 105 nM; in assay [2] (Homo sapiens), 1460 nM; in assay [3] (Homo sapiens, PBMC), 1170 nM; in assay [4] (Homo sapiens), 628 nM; in assay [5] (Homo sapiens, 96 h), 5350 nM; in assay [6], 6.2 nM. In assay [7] (setting [8]), this molecule returned an EC50 of 294 nM.
For `Cc1nnc(-c2ccc3cnc(NC(=O)CN4CCN(C)CC4)cc3c2)s1` [Compound 946, N-(6-(5-Methyl-1,3,4-thiadiazol-2-yl)isoquinolin-3-yl)-2-(4-methylpiperazin-1-yl)acetamide], the EC50 was 38 nM in assay [1]; 1880 nM in assay [2] (Homo sapiens); above 10000 nM in assay [3] (Homo sapiens, PBMC); 571 nM in assay [4] (Homo sapiens); above 10000 nM in assay [5] (Homo sapiens, 96 h); 23 nM in assay [6]. The molecule further showed a concentration giving a half-maximal response (EC50) in assay [7] (setting [8]) of 970 nM. In addition, the inhibition at 10 µM in assay [3] (Homo sapiens, PBMC) came to 18.2%; in assay [5] (Homo sapiens), 42.6%.
Take `CC(C)N1CCC(C(=O)Nc2cc3cc(-c4cnn(C)c4)ccc3cn2)CC1` [Compound 75, 1-Isopropyl-N-(6-(1-methyl-1H-pyrazol-4-yl)isoquinolin-3-yl)piperidine-4-carboxamide]: the concentration giving a half-maximal response (EC50) in assay [1] is 64 nM; in assay [2] (Homo sapiens), 520 nM; in assay [3] (Homo sapiens, PBMC) it was 806 nM; in assay [4] (Homo sapiens) it was 227 nM; in assay [5] (Homo sapiens, 96 h) it was 1320 nM; in assay [6], 2.6 nM. The same molecule had an EC50 in assay [7] (setting [8]) of 148 nM.
For `Cn1ncc(-c2ccc3cnc(NC(=O)[C@H]4CCCN4)cc3c2)c1CN1CCCCC1` [Compound 803, (R)—N-(6-(1-Methyl-5-(piperidin-1-ylmethyl)-1H-pyrazol-4-yl)isoquinolin-3-yl)pyrrolidine-2-carboxamide], the EC50 worked out at 164 nM in assay [1]; 3550 nM in assay [2] (Homo sapiens); 3320 nM in assay [3] (Homo sapiens, PBMC); 3700 nM in assay [4] (Homo sapiens); 4530 nM in assay [5] (Homo sapiens, 96 h); 12.6 nM in assay [6]. This molecule also had an EC50 in assay [7] (setting [8]) above 10000 nM. The inhibition at 10 µM in assay [7] (Homo sapiens, Fibroblast) was 27.8%.
With `C[C@@H]1COCCN1CC(=O)Nc1cc2cc(-c3cnn(C)c3)ccc2cn1` [Compound 342, (R)—N-(6-(1-Methyl-1H-pyrazol-4-yl)isoquinolin-3-yl)-2-(3-methylmorpholino)acetamide], the concentration for a half-maximal effect (EC50) was 137 nM in assay [1]; 7220 nM in assay [2] (Homo sapiens); 4170 nM in assay [3] (Homo sapiens, PBMC); 3600 nM in assay [4] (Homo sapiens); above 10000 nM in assay [5] (Homo sapiens, 96 h); 6.5 nM in assay [6]. In assay [7] (setting [8]), this molecule displayed a half-maximal effective concentration (EC50) of 948 nM. For the same molecule, the inhibition at 10 µM in assay [5] (Homo sapiens) turned out to be 40%.
With `Cn1cc(-c2ccc3cnc(NC(=O)CN4CC(C)(C)C4)cc3c2)cn1` [Compound 273, 2-(3,3-Dimethylazetidin-1-yl)-N-[6-(1-methylpyrazol-4-yl)-3-isoquinolyl]acetamide], the concentration giving a half-maximal response (EC50) in assay [1] turned out to be 48 nM; in assay [2] (Homo sapiens) it was 1510 nM; in assay [3] (Homo sapiens, PBMC), 842 nM; in assay [4] (Homo sapiens) it was 492 nM; in assay [5] (Homo sapiens, 96 h), 1180 nM; in assay [6], 10.7 nM. This molecule registered an EC50 in assay [7] (setting [8]) of 515 nM.
Take `C[C@H](F)CN1CCC(C(=O)Nc2cc3cc(-c4cnn(C)c4)ccc3cn2)CC1` [Compound 311, (S)-1-(2-Fluoropropyl)-N-(6-(1-methyl-1H-pyrazol-4-yl)isoquinolin-3-yl) piperidine-4-carboxamide]: the half-maximal effective concentration (EC50) in assay [1] was 20 nM; in assay [2] it was 578 nM; in assay [3], 396 nM; in assay [4], 163 nM; in assay [5], 751 nM; in assay [6] it was 1.9 nM. Moreover, the EC50 in assay [7] (dose-response 10 μM to […]) was 76 nM.
As for `Cn1cc(-c2ccc3cnc(NC(=O)[C@H]4CC[C@H](N(C)C)CC4)cc3c2)nn1` [Compound 443, trans-4-(Dimethylamino)-N-(6-(1-methyl-1H-1,2,3-triazol-4-yl)isoquinolin-3-yl)cyclohexane-1-carboxamide], the concentration giving a half-maximal response (EC50) is 13 nM in assay [1]; 397 nM in assay [2] (Homo sapiens); 3290 nM in assay [3] (Homo sapiens, PBMC); 289 nM in assay [4] (Homo sapiens); 1680 nM in assay [5] (Homo sapiens, 96 h); 2.2 nM in assay [6]. This molecule came in with an EC50 in assay [7] (setting [8]) of 371 nM.
Consider `Cc1nnc(-c2ccc3cnc(NC(=O)CN4CC5CCC(C4)O5)cc3c2)s1` [Compound 1029, 2-(8-Oxa-3-azabicyclo[3.2.1]octan-3-yl)-N-(6-(5-methyl-1,3,4-thiadiazol-2-yl)isoquinolin-3-yl)acetamide], for which the EC50 in assay [1] is 18 nM; in assay [2] (Homo sapiens), 3340 nM; in assay [3] (Homo sapiens, PBMC), above 10000 nM; in assay [4] (Homo sapiens), 239 nM; in assay [5] (Homo sapiens, 96 h), above 10000 nM; in assay [6], 25.7 nM. Moreover, the half-maximal effective concentration (EC50) in assay [7] (setting [8]) was above 10000 nM. The inhibition at 10 µM in assay [3] (Homo sapiens, PBMC) turned out to be 7.3%; in assay [5] (Homo sapiens) it was 34.6%; in assay [7] (Homo sapiens, Fibroblast) it was 31.8%.
For the molecule `Cc1ncc(-c2ccc3cnc(NC(=O)[C@@H]4CCCO4)cc3c2)n1C` [Compound 188, (S)—N-(6-(1,2-Dimethyl-1H-imidazol-5-yl)isoquinolin-3-yl)tetrahydrofuran-2-carboxamide], the EC50 in assay [1] is 265 nM; in assay [2] (Homo sapiens) it was above 10000 nM; in assay [3] (Homo sapiens, PBMC), 9980 nM; in assay [4] (Homo sapiens) it was 4220 nM; in assay [5] (Homo sapiens, 96 h), above 10000 nM; in assay [6], 28.6 nM. The same molecule gave a 50% effective concentration (EC50) in assay [7] (setting [8]) above 10000 nM. In assay [7] (Homo sapiens, Fibroblast), the inhibition at 10 µM was 12.4%.
For the molecule `Cn1cc(-c2ccc3cnc(NC(=O)[C@H]4CC[C@H](CN5CC(F)C5)CC4)cc3c2)cn1` [Compound 10, trans-4-((3-Fluoroazetidin-1-yl)methyl)-N-(6-(1-methyl-1H-pyrazol-4-yl)isoquinolin-3-yl)cyclohexane-1-carboxamide], the concentration for a half-maximal effect (EC50) came out at 51 nM in assay [1]; 277 nM in assay [2] (Homo sapiens); 399 nM in assay [3] (Homo sapiens, PBMC); 227 nM in assay [4] (Homo sapiens); 324 nM in assay [5] (Homo sapiens, 96 h); 1.3 nM in assay [6]. Besides, the EC50 in assay [7] (setting [8]) is above 10000 nM. For the same molecule, the inhibition at 10 µM in assay [7] (Homo sapiens, Fibroblast) came to 39.6%.
Take `Cn1cc(-c2ccc3cnc(NC(=O)C4CCC(F)(F)CC4)cc3c2)nn1` [Compound 441, 4,4-Difluoro-N-(6-(1-methyl-1H-1,2,3-triazol-4-yl)isoquinolin-3-yl) cyclohexane-1-carboxamide]: the EC50 was found to be 5 nM in assay [1]; 1210 nM in assay [2] (Homo sapiens); 3350 nM in assay [3] (Homo sapiens, PBMC); 73 nM in assay [4] (Homo sapiens); 5270 nM in assay [5] (Homo sapiens, 96 h); 9.1 nM in assay [6]. Also, a half-maximal response in assay [7] (setting [8]) (EC50) required 57 nM.
As for `Cn1cc(-c2cc3cc(NC(=O)C4CCNCC4)ncc3cc2F)cn1` [Compound 369, N-(7-Fluoro-6-(1-methyl-1H-pyrazol-4-yl)isoquinolin-3-yl)piperidine-4-carboxamide], the EC50 stood at 101 nM in assay [1]; 743 nM in assay [2] (Homo sapiens); 1130 nM in assay [3] (Homo sapiens, PBMC); 970 nM in assay [4] (Homo sapiens); 864 nM in assay [5] (Homo sapiens, 96 h); 2.8 nM in assay [6]. In addition, in assay [7] (setting [8]), the response was half-maximal at 295 nM (EC50).

The values are drawn from patent US10287267B2, “Isoquinolin-3-yl carboxamides and preparation and use thereof” (Samumed, LLC, priority 2016, dated 2019).
